{"source": "patent US6495147B1", "about": "(LVMH Recherche, priority 1997, dated 2002)", "key": {"[1]": {"test_system": "normal human keratinocytes", "assay": "Cytotoxicity / cell viability in keratinocyte cultures", "format": "cell-based", "conditions": "concentrations of 1.5 and 10 mM", "protocol": "(§1) The cultures are then incubated for 48 h at 37° C. in a humidity-saturated atmosphere containing 5% of CO2."}, "[2]": {"test_system": "normal human keratinocytes", "assay": "Stimulation of synthesis and secretion of PG and GAG by keratinocytes (radioactive tracer incorporation)", "format": "cell-based", "conditions": "for GAG secreted / A, stimulating activity on the secretion of GAG: 48 h; for A, stimulating activity on the secretion of GAG: versus untreated control", "protocol": "These tracers enable the amount of PG and GAG to be measured.\nThere are two families of GAG which differ in their sugar chains. One is based on a sequence of glucosamines and the other is based on a sequence of galactosamines. It is for this reason that two different radioactive tracers were used, namely ^3H-D-glucosamine and ^14C-D-galactosamine, which become incorporated in the osidic chains of PG and GAG during their synthesis.\nThe cells are incubated for 24 h at 37° C. in a humidity-saturated atmosphere containing 5% of CO2.\nas §1\nThe enzyme is then inactivated by heating for 10 min in boiling water, after which the mixture is brought back to room temperature. A selective precipitation of the GAG is effected with 40 μl of cetylpyridinium chloride (CPC at 100 mg/ml, Sigma) in the presence of 40 μl of a mixture of hyaluronic acid (Fluka), dermatan sulfate (Fluka) and chondroitin sulfate (Sigma), all at 2 mg/ml (amounting to the addition of a solution containing 6 mg/ml of non-radioactive GAG). These non-radioactive GAG are added to trigger the precipitation and entrain the radioactive GAG (which on their own would not be in a sufficient amount to precipitate) into the precipitate. The precipitate obtained is washed twice with 400 μl of a solution of CPC at 10 mg/ml, and then solubilized in 500 μl of methanol (Merck). The radioactivity is finally measured by liquid scintillation with 10 ml of scintillating liquid (Packard).\nIt should be noted when processing the results that the GAG whose synthesis has been measured have two origins. They originate both from the synthesized and secreted GAG and from the synthesized and secreted PG (which have undergone hydrolysis with pronase for the purposes of the assay).\nIn order to reduce the radioactivity to a unit amount of cellular material, the cellular proteins are assayed. After removal of the culture medium and two rinses with a phosphate buffer of pH 7.2 (PBS, Gibco), the cellular tapetum in the culture wells is dissolved in 30 μl of 0.1 M NaOH at 37° C. and the plates are agitated for 30 min at 37° C. 200 μl of bicinchoninic acid/Cu^++ sulfate reagent (Sigma kit) are added to each well. The plates are incubated for 30 min at 37° C. in the dark and the proteins which it is desired to assay reduce the cupric ions (Cu^++) of the copper sulfate to cuprous ions (Cu^+). The latter and the bicinchoninic acid form chromogenic complexes absorbing at 570 nm, which is the wavelength used to measure the optical density. In parallel, a calibration series is prepared under the same experimental conditions with 0 to 100 μg/well of bovine serum albumin (BSA, Sigma) in order to translate the optical densities (OD) obtained with the cellular proteins into Stg of BSA equivalent per well.\nThe amounts of GAG measured will be reduced to a unit amount of protein (expressed in jig of BSA equivalent).\nThe stimulating activity “A” on the secretion of GAG is calculated in the form of a percentage according to the following formula: [formula]"}, "[3]": {"conditions": "D-xylose 1 mM, tracer 3H-D-glucosamine"}, "[4]": {"conditions": "D-xylose 1 mM, tracer 14C-D-galactosamine"}, "[5]": {"conditions": "D-xylose 5 mM, tracer 3H-D-glucosamine"}, "[6]": {"conditions": "D-xylose 10 mM, tracer 3H-D-glucosamine"}, "[7]": {"conditions": "D-xylose 10 mM, tracer 14C-D-galactosamine"}}}
{"smiles": "O=C[C@H](O)[C@@H](O)[C@H](O)CO", "note": "[D-xylose]", "values": [{"measurement": "cytotoxicity", "setting": "[1]", "value": "non-cytotoxic"}, {"measurement": "GAG secreted", "setting": "[2]; [3]", "value": "2148 ± 160", "unit": "dpm/μg protein"}, {"measurement": "A, stimulating activity on the secretion of GAG", "setting": "[2]; [3]", "value": 55, "unit": "%"}, {"measurement": "GAG secreted", "setting": "[2]; [4]", "value": "136 ± 12", "unit": "dpm/μg protein"}, {"measurement": "A, stimulating activity on the secretion of GAG", "setting": "[2]; [4]", "value": 34, "unit": "%"}, {"measurement": "GAG secreted", "setting": "[2]; [5]", "value": "2661 ± 202", "unit": "dpm/μg protein"}, {"measurement": "A, stimulating activity on the secretion of GAG", "setting": "[2]; [5]", "value": 92, "unit": "%"}, {"measurement": "A, stimulating activity on the secretion of GAG", "setting": "[2]; D-xylose 5 mM, tracer 14C-D-galactosamine", "value": 105, "unit": "%"}, {"measurement": "GAG secreted", "setting": "[2]; [6]", "value": "2950 ± 262", "unit": "dpm/μg protein"}, {"measurement": "A, stimulating activity on the secretion of GAG", "setting": "[2]; [6]", "value": 113, "unit": "%"}, {"measurement": "GAG secreted", "setting": "[2]; [7]", "value": "250 ± 28", "unit": "dpm/μg protein"}, {"measurement": "A, stimulating activity on the secretion of GAG", "setting": "[2]; [7]", "value": 145, "unit": "%"}, {"measurement": "synthesis and extracellular secretion of PG and GAG by the keratinocytes of the human epidermis", "setting": "[2]; irrespective of the radioactive tracer used", "value": "very strongly stimulates"}]}
